This data set in a line: Solubility of the dye in water. It counts as physicochemical. From the text: Further, the dye component used in the Example, which has a solubility in water of 100 g/L, is excellent for ink-jet recording and can produce a high concentration of ink composition.

By solubility is commonly meant how much of the substance goes into solution per volume.

Values after ≈ are worked out from the molar mass of the structure shown.

Consider `CCC(C)(C)c1ccc(Oc2cc(Nc3ccc(S(=O)(=O)O)cc3)c3c4c(c(C(=O)c5ccccc5)c(=O)[nH]c24)-c2ccccc2C3=O)c(S(=O)(=O)O)c1`, for which the “solubility in pure water (ion exchanged water)” value (25° C., listed as the dye component used in the Example) worked out at 100 mg/mL (≈ 131 mM). This compound also came in with a solubility (pure water (ion exchanged water), 25 °C, water) of around 100 mg/mL (≈ 131 mM).

The values above are taken from patent publication US6530985B1, “Water-based magenta ink composition and method of ink-jet recording” (Nippon Kayaku Kabushiki Kaisha, priority 1998, dated 2003).
